Reference: US20120208809A1, “9H-PYRROLO[2,3-B: 5,4-C'] DIPYRIDINE AZACARBOLINE DERIVATIVES, PREPARATION THEREOF, AND THERAPEUTIC USE THEREOF” (SANOFI, priority 2009, published 2012)

Key:
[1] = target: T1, Pim-1 (Homo sapiens, UniProt P11309); assay: TR-FRET assay of Pim kinase activity (phosphorylation of Bad Ser112), Pim-1; type: biochemical; settings: ATP 40 μM, read-out: IC50 Pim1
T1 construct: full-length human recombinant His6-labelled Pim-1, Pim-2 or Pim-3 protein; His6; made in house
Method: (§1) In order to determine the inhibition of Pim kinase activity, the compounds of the invention are tested in accordance with a routinely-used in-vitro TR-FRET assay (“Time Resolved-Fluorescence Resonance Energy Transfer”). […] For the assay, the following reagents are used:
(§2) Pim kinase—full-length human recombinant His6-labelled Pim-1, Pim-2 or Pim-3 protein (prepared according to J. Mol. Biol. (2005) 348, 183-193); Bad—full-length human recombinant His6-labelled Bad protein (prepared according to J. Mol. Biol. (2005) 348, 183-193); α-His6-APC—mouse monoclonal antibody conjugated to allophycocyanine SureLight™ directed against the His6 label (Perkin-Elmer, No. AD0059H, Waltham, Mass., United States); α-P˜Bad-Eu—mouse monoclonal antibody (Cell Signaling Technology #9296B, Danvers, Mass., United States) directed against phosphoBad (Ser112) (7E11) labelled on request by Perkin-Elmer with the reagent LANCE™ Eu-W1024.
(§3) The assay is based on the LANCE™ technology from Perkin-Elmer: the Eu-labelled antibody binds to phospho-Ser112 and generates a TR-FRET signal by interaction with the […] antibody directed against His6, bound to the His6 label of Bad. The TR-FRET signal is detected using a SpectraMax M5 plate reader (Molecular Devices) with the following settings: λex=340 nm, λem1=615 nm, λem2=665 nm. The ratio of the fluorescence signal at 665 nm to the fluorescence signal at 615 nm is used as the signal reading for the IC50 (calculations based on the 4-parameter logistic model). The assay is performed in 384-well format; the liquid manipulations are performed using a Beckmann 3000 liquid manipulation station. The test compounds are tested at 10 concentration points in duplicate; the highest concentration of compound is typically equal to 30 μM. The ATP concentration is equal to 40 μM.

[2] = target: T2, Pim-2 (Homo sapiens, UniProt Q9P1W9); assay: TR-FRET assay of Pim kinase activity (phosphorylation of Bad Ser112), Pim-2; type: biochemical; settings: ATP 40 μM, read-out: IC50 Pim2
T2 construct: full-length human recombinant His6-labelled Pim-1, Pim-2 or Pim-3 protein; His6; made in house
T2 sequence (Q9P1W9 whole entry): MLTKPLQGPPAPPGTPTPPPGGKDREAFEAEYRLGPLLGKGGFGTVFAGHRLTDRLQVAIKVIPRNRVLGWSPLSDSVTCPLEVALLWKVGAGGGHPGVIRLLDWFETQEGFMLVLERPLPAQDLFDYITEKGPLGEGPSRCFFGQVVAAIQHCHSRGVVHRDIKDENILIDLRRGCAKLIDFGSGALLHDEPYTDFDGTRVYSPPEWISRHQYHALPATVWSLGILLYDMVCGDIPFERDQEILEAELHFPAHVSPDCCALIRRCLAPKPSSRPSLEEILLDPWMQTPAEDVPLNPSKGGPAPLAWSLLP
Method: as §1, §2, §3

[3] = target: T3, Pim-3 (Homo sapiens, UniProt Q86V86); assay: TR-FRET assay of Pim kinase activity (phosphorylation of Bad Ser112), Pim-3; type: biochemical; settings: ATP 40 μM, read-out: IC50 Pim3
T3 construct: full-length human recombinant His6-labelled Pim-1, Pim-2 or Pim-3 protein; His6; made in house
Method: as §1, §2, §3

[4] = target: CDK1 (Homo sapiens, UniProt P06493); assay: Biochemical results, IC50 CDK1
Sequence of CDK1 (P06493 whole entry, species assumed): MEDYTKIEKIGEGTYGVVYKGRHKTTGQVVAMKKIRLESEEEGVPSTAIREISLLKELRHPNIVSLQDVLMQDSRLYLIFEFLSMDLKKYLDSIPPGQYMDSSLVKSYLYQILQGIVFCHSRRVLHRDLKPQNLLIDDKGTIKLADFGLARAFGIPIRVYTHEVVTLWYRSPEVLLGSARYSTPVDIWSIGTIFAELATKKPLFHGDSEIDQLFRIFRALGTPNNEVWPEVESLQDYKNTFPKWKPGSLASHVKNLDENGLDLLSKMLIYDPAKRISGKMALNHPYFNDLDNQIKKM
Sequence of CDK1 (P14635 whole entry partner, species assumed): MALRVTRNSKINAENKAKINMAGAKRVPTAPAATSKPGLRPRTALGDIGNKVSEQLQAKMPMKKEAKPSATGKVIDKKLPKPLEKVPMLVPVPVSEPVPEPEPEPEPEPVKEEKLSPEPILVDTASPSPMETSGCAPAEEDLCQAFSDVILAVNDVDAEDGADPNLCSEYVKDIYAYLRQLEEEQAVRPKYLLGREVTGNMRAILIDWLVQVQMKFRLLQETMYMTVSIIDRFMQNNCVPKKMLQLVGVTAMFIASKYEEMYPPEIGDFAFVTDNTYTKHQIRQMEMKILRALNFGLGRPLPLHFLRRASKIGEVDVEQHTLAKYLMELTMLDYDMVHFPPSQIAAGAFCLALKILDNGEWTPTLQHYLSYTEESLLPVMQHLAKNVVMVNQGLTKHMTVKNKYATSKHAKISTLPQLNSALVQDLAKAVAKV

[5] = target: PLK1 (Homo sapiens, UniProt P53350); assay: Biochemical results, IC50 PLK1
Sequence of PLK1 (P53350 whole entry, species assumed): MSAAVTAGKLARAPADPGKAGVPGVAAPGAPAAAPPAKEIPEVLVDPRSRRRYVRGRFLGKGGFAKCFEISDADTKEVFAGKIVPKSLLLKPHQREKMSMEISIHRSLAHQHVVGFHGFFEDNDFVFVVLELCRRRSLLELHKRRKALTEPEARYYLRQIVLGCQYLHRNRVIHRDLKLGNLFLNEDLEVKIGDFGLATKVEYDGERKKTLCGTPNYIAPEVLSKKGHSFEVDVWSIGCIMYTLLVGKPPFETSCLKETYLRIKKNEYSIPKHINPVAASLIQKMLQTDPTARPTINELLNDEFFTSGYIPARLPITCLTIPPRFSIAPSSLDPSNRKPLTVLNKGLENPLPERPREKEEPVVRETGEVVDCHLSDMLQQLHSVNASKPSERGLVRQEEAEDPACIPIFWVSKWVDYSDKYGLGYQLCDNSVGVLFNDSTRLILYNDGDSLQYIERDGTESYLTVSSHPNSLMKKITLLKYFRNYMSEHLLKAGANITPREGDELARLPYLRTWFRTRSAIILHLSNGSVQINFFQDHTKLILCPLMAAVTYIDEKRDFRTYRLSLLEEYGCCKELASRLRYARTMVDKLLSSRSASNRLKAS

[6] = system: EOL-1; assay: Cell viability assay (CellTiter-Blue), EOL-1; type: cell-based; settings: Homo sapiens, EOL1, read-out: EC50 EOL-1 μM (eosinophilic leukaemia), EOL-1 cells, read-out: EC50 EOL-1 μM (lymphoma);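 note: EOL-1 is an acute myeloid eosinophilic leukaemia line not a lymphoma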
Description: (§4) The representative compounds of the invention are also screened as regards their effects on cell proliferation and viability, using a variety of tumoral cell lines of human source, representative of different pathological indications. These cell lines include:
Models of Haematological Cancers: • TF-1 (acute myelogenic leukaemia; AML M6 at the time of diagnosis); • K G-1 (AML; erythroleukaemia evolving into AML); • KG-1a (AML; subclone derived from immature KG-1); • EOL-1 (AML: eosinophilic leukaemia); • PL-21 (AML; M3); • ML-2 (AML; T-NHL evolving into T-ALL evolving into AML M4); • HL-60 (AML, M3); • Kasumi-1 (AML); • GDM-1 (AML); • K-562 (CML—chronic myelogenic leukaemia; blastic crisis); • JURL-MK1 (CML; blastic crisis); • DND-41 (T-ALL—T-cell acute lymphoblastic leukaemia); • Jurkat (T-ALL); NALM-6 (B-ALL B-cell ALL); • CEM (ALL; lymphosarcoma evolving into ALL); • Jeko-1 (B-NHL—B-cell non-Hodgkin lymphoma; lymphoma with coat cells derived from a large-cell variant in leukaemic transformation); • WSU-DLCL2 (B-NHL; diffuse lymphoma with large B cells); • RL (B-NHL; undifferentiated diffuse); • OCl-Ly10 (B-NHL); • DoHH-2 (B-NHL); • RPMI-8226 (MM—multiple myelomas); • JVM-2 (B-CLL—B-cell chronic lymphocytic leukaemia); and • JVM-3 (B-CLL).
(§5) In order to measure the viability, the tumour cells are incubated in 96-well or 384-well format for 48, 72 or 96 hours, preferably 72 hours, with a compound of the invention at dilutions of a factor 3, with, in general, nine doses in total, the highest dose being equal to 10 μM or 30 μM. The cell viability is evaluated by adding CellTiter-Blue® (Promega, Madison, Wis., United States) for 4 hours and endpoint readings are taken using a SpectraMax Genmini EM plate reader (Molecular Devices, Sunnyvale, Calif., United States). The CellTiter-Blue® cell viability assay measures the ability of the cells in culture to reduce resazurin to resorufin, the intensity of the fluorescence signal being directly proportional to the number of live cells. The EC50 represents the concentration of compound that leads to a 50% reduction of the viability/proliferative expansion of the cells.

[7] = system: MV4-11; assay: Cell viability assay (CellTiter-Blue), MV4-11; type: cell-based; settings: Homo sapiens, read-out: EC50 MV4-11 μM (acute myeloid leukemia), MV4-11 cells, read-out: EC50 MV4-11 μM (myeloma)
Method: as §4, §5

[8] = system: phosphoBAD (DND-41); assay: Level of phosphorylation of Bad by ELISA, DND-41 cell line; type: cell-based; settings: Homo sapiens, DND41, DND-41 cells, 3 hours at 37° C.
Method: The activity of the molecules is evaluated on the JEKO or DND-41 cell line by measuring the level of phosphorylation of Bad and the total Bad content, via the ELISA technique.
The JEKO or DND-41 cells are resuspended at a concentration of 500 000 cells per ml. The cells are then diluted in RPMI-1640 medium containing 20% foetal calf serum. 225 μl of cells are placed in a plate. Serial dilutions of the molecules are then performed (8 points, three-fold dilution, range started at 10 mM). Each dilution point is then diluted to 1/100 in medium. Next, 25 μl of each of the concentrations are added to the cells and then incubated for 3 hours at 37° C.
100 μl of the cells are transferred into a plate treated with poly-D-Lysine. The plate is then incubated for 5-10 minutes at 37° C. and then centrifuged for 5 minutes at 1500 rpm. A volume of 100 μl of 8% fixing solution (solution of formaldehyde in PBS buffer) is added to each of the wells. After covering with a self-adhesive film and a lid, the plate is incubated for 20 minutes at room temperature and then stored at 4° C. overnight.
Next, the liquid is removed and two successive washes are performed with washing buffer. 100 μl of quenching buffer are added, followed by incubating for 15 minutes at room temperature. After washing, 100 μl of […] at room temperature. After washing, 50 μl of primary antibody diluted to 1/250 for pBAD (Cell Signaling Cat#5284) and to 1/500 for Bad (MBL Cat#591) are added to each of the plates. Each plate is incubated for 2 hours at room temperature. After two washes, 50 μl of secondary antibody (diluted to 1/16) are added to the pBAD plate (tebu-bio ref; FE-021) and 50 μl of the HRP-conjugated IgG secondary antibody (Santa Cruz Cat #SC-2004; diluted to 1/1000) are added to the Bad plate. Incubation for 1 hour at room temperature is performed. Four washes with the washing solution are performed, followed by three washes with PBS. Finally, 100 μl of the developing solution are added, followed by incubation for 10 minutes. Finally, 100 μl of the quenching solution are added, before reading at 450 nm.

T1 sequence (P11309 whole entry): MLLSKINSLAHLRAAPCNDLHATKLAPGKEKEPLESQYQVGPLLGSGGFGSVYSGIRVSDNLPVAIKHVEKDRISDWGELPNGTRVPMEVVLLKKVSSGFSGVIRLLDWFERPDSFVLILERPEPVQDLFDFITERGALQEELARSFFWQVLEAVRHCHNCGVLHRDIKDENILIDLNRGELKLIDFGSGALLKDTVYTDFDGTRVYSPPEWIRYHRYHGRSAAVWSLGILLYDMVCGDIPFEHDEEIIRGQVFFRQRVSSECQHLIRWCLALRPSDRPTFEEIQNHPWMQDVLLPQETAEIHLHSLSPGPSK

| Compound | IC50 [1] [nM] | IC50 [2] [nM] | IC50 [3] [nM] | IC50 [4] [nM] | IC50 [5] [nM] | EC50 [7] [nM] | IC50 [8] [nM] | EC50 [6] [nM] |
| --- | --- | --- | --- | --- | --- | --- | --- | --- |
| CN1CCN(NC(=O)c2ccc(-c3c(F)cnc4[nH]c5cnc(-c6cnn(C)c6Cl)cc5c34)cc2)CC1 [Example 106, 4-[6-(5-chloro-1-methyl-1H-pyrazol-4-yl)-3-fluoro-9H-pyrrolo[2,3-b:5,4-c′]dipyridin-4-yl]-N-(4-methylpiperazin-1-yl)benzamide] | < 100 | < 100 | < 100 | 100 to 1000 | 1000 to 5000 | 100 to 1000 | – | < 100 |
| CN1CC(NC(=O)c2ccc(-c3c(F)cnc4[nH]c5cnc(-c6cccnc6)cc5c34)cc2)C1 [Example 56, 4-[3-fluoro-6-(pyridin-3-yl)-9H-pyrrolo[2,3-b:5,4-c′]dipyridin-4-yl]-N-(1-methylazetidin-3-yl)benzamide] | < 100 | < 100 | < 100 | 100 to 1000 | 100 to 1000 | < 100 | – | < 100 |
| CN(C)CCNC(=O)c1ccc(-c2c(F)cnc3[nH]c4cnc(-c5cnn(C)c5)cc4c23)cc1 [Example 37, N-[3-(dimethylamino)ethyl]-4-[3-fluoro-6-(1-methyl-1H-pyrazol-4-yl)-9H-pyrrolo[2,3-b:5,4-c′]dipyridin-4-yl]benzamide] | < 100 | < 100 | < 100 | 100 to 1000 | 1000 to 5000 | – | 1000 to 5000 | – |
| COCCOc1cnc2[nH]c3cnc(-c4cccnc4)cc3c2c1-c1ccc(C(=O)NCCN(C)C)cc1 [Example 120, N-[2-(dimethylamino)ethyl]-4-[3-(2-methoxyethoxy)-6-(pyridin-3-yl)-9H-pyrrolo[2,3-b:5,4-c′]dipyridin-4-yl]benzamide] | < 100 | < 100 | < 100 | – | – | < 100 | 100 to 1000 | < 100 |
| CN1CCC(NC(=O)c2ccc(-c3c(F)cnc4[nH]c5cnc(-c6cnn(C)c6Cl)cc5c34)cc2)CC1 [Example 107, 4-[6-(5-chloro-1-methyl-1H-pyrazol-4-yl)-3-fluoro-9H-pyrrolo[2,3-b:5,4-c′]dipyridin-4-yl]-N-(1-methylpiperidin-4-yl)benzamide] | < 100 | < 100 | < 100 | 1000 to 5000 | > 5000 | 100 to 1000 | – | 100 to 1000 |
| NC1(CNC(=O)c2ccc(-c3c(F)cnc4[nH]c5cnc(-c6cccnc6)cc5c34)cc2)CC1 [Example 89, N-[(1-aminocyclopropyl)methyl]-4-[3-fluoro-6-(pyridin-3-yl)-9H-pyrrolo[2,3-b:5,4-c′]dipyridin-4-yl]benzamide] | < 100 | < 100 | < 100 | 100 to 1000 | 100 to 1000 | 100 to 1000 | – | 100 to 1000 |
| CC(C)(CNC(=O)c1ccc(-c2c(F)cnc3[nH]c4cnc(-c5cccnc5)cc4c23)cc1)N1CCCC1 [Example 58, 4-[3-fluoro-6-(pyridin-3-yl)-9H-pyrrolo[2,3-b:5,4-c′]dipyridin-4-yl]-N-[2-methyl-2-(pyrrolidin-1-yl)propyl]benzamide] | < 100 | 100 to 1000 | < 100 | 1000 to 5000 | 100 to 1000 | – | – | – |

Continued, in another order:

| IC50 [1] [nM] | IC50 [2] [nM] | IC50 [3] [nM] | IC50 [4] [nM] | IC50 [5] [nM] | EC50 [7] [nM] | IC50 [8] [nM] | Compound | EC50 [6] [nM] |
| --- | --- | --- | --- | --- | --- | --- | --- | --- |
| < 100 | < 100 | < 100 | 100 to 1000 | 100 to 1000 | 100 to 1000 | – | CCNCCNC(=O)c1ccc(-c2c(F)cnc3[nH]c4cnc(-c5cccnc5)cc4c23)cc1 [Example 87, N-[2-(ethylamino)ethyl]-4-[3-fluoro-6-(pyridin-3-yl)-9H-pyrrolo[2,3-b:5,4-c′]dipyridin-4-yl]benzamide] | 100 to 1000 |
| < 100 | 100 to 1000 | < 100 | 100 to 1000 | 100 to 1000 | 100 to 1000 | – | NCC(F)(F)CNC(=O)c1ccc(-c2c(F)cnc3[nH]c4cnc(-c5cccnc5)cc4c23)cc1 [Example 90, N-(3-amino-2,2-difluoropropyl)-4-[3-fluoro-6-(pyridin-3-yl)-9H-pyrrolo[2,3-b:5,4-c′]dipyridin-4-yl]benzamide] | 100 to 1000 |
| < 100 | 100 to 1000 | < 100 | 100 to 1000 | < 100 | – | – | O=C(NCCNc1ccccn1)c1ccc(-c2c(F)cnc3[nH]c4cnc(-c5cccnc5)cc4c23)cc1 [Example 78, 4-[3-fluoro-6-(pyridin-3-yl)-9H-pyrrolo[2,3-b:5,4-c′]dipyridin-4-yl]-N-[2-(pyridin-2-ylamino)ethyl]benzamide] | – |
| < 100 | 1000 to 5000 | < 100 | 100 to 1000 | 100 to 1000 | – | – | CS(=O)(=O)NCCNC(=O)c1ccc(-c2c(F)cnc3[nH]c4cnc(-c5cccnc5)cc4c23)cc1 [Example 62, 4-[3-fluoro-6-(pyridin-3-yl)-9H-pyrrolo[2,3-b:5,4-c′]dipyridin-4-yl]-N-{2-[(methylsulfonyl)amino]ethyl}benzamide] | – |
